Where “and” joins values, the source holds several entries; their conditions need not be identical. Identical values can stand only once. Calls of active or inactive are those of the source.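 How the source made its calls: active means compounds giving half or more protection of infected cells from virus-caused growth loss, again on retest; inactive means the rest.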 Some results are limits rather than exact numbers.

The test has as its system CEM cells HIV-1 protection, formazan growth assay. Put plainly: NCI AIDS Antiviral Assay. The note with it: for IC50: measured here: growth of uninfected CEM cells. The gist of the method:
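Human CEM cells, uninfected and HIV-1-infected, received five drug concentrations, and growth was read by soluble formazan assay. Compounds giving at least 50% protection were retested; reproducible 100% protection defined confirmed active.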

As for `CCN(c1cccc(NC(=S)Nc2ccccc2N(CC)c2cc(-c3ccccc3)no2)c1)c1cc(-c2ccccc2)no1`, the EC50 – broadly, the midpoint of the concentration-response curve – is above 200 µM and the IC50 – broadly, the point on the concentration scale where inhibition reaches its midpoint – was above 200 µM.

As for `CCOC(=O)c1cc2sc(NC(=O)c3ccco3)nc2o1`, the EC50 was 182 µM and the IC50 is above 200 µM. Consider `N=C(N)SCCc1ccncc1`, for which the EC50 is above 200 µM and the half-maximal inhibitory concentration (IC50) is 155 µM. As to `CN1CCC(CNC(=O)CCCCCCCCC(=O)NCC2(c3ccccc3)CCN(C)CC2)(c2ccccc2)CC1`, the EC50 was 97.7 µM and > 100 µM; the half-maximal inhibitory concentration (IC50) is above 100 µM. For the compound `O=S(=O)(CC#CCO)c1ccccc1`, the outcome was inactive. On the same count and under the same terms, the entry for `COC(=O)NC(Nc1ccc(C)cc1)(C(F)(F)F)C(F)(F)F` is “inactive”. Take `CCCCCCCCCCCCCCCCCCNC(=S)/N=C/c1c(O)c2ccccc2[nH]c1=O`: the EC50 was above 200 µM and the IC50 was determined as 44.7 µM.

In the case of `C=CCNC(=O)N(CCCCC(NC(C)=O)C(=O)NCc1ccccc1)Cc1ccccc1` (stereo unspecified), the EC50 is above 550 µM and the IC50 is 372 µM. Consider `C(/C=N/NC1=NCCN1)=N\NC1=NCCN1`, for which the EC50 is above 200 µM and the IC50 is above 200 µM. Take `CCOC(=O)Cc1c(Cc2[nH]c(C(=O)OCc3ccccc3)c(CC(=O)OCC)c2CC(=O)OCC)[nH]c(C(=O)OCc2ccccc2)c1CC(=O)OCC`: the EC50 was above 5.01 µM and the IC50 was above 5.01 µM. Regarding `O=C1C2c3[nH]c4ccccc4c3C3CCCCCCC3C2C(=O)N1c1ccccc1` (stereo unspecified), the outcome was inactive.

For `CSc1nnc2sc3cc(C)ccc3n12`, the EC50 is above 200 µM and the half-inhibitory concentration (IC50) was 123 µM. As to `CCN=C(NC(=O)c1ccc(Cl)cc1)SCSC(=NCC)NC(=O)c1ccc(Cl)cc1`, the EC50 was above 200 µM and the IC50 is 72.4 µM.

In the case of `COC(=O)/C(=N/O)C(C(=O)C=C(C)C)C(=O)C(=O)Nc1nc2ccc([N+](=O)[O-])cc2s1` (stereo unspecified), the EC50 was above 41.7 µM and the IC50 stood at 32.4 µM.

`CC1(C)CN=C(c2ccc3ccccc3c2O)N1`: the EC50 is above 200 µM and the IC50 was above 200 µM.

Take `COc1cccc(-n2cccc2)c1`: the EC50 is above 200 µM and the IC50 is above 200 µM. `N#Cc1ccc(C(=O)/C=C/c2ccc(O)c(O)c2)cc1`: the EC50 was above 200 µM and the concentration for half-maximal inhibition (IC50) was 10.2 µM. Regarding `Nc1ccn(C2CCC3(CO)CC23)c(=O)n1` (stereo unspecified), the EC50 was above 50.1 µM and the half-maximal inhibitory concentration (IC50) is above 50.1 µM. On to `COc1cccc(C2NC(=S)N3C(c4cccc(OC)c4)NC(=S)N23)c1` (stereo unspecified), for which the outcome was inactive.

Take `O=[N+]([O-])c1ccc(C2=Nn3c(nnc3-c3ccccc3)SC2)o1`: the result was inactive. With `CN(C)c1ccc(/C=c2\sc3nnc(Cc4ccccc4)n3c2=O)cc1`, the EC50 is above 3.98 µM and the IC50 is above 3.98 µM. In the case of `O=C1c2ccccc2C(=O)c2c(O)c(NCCCNCCO)cc(O)c21`, the result was inactive. Consider `Cc1nc(N)c(N2CCN(CN)CC2)c(=O)[nH]1`, for which the EC50 is above 200 µM and the half-inhibitory concentration (IC50) was above 200 µM. Consider `O=S(=O)(c1ccc(Cl)c(Cl)c1)c1ccc(Cl)c(Cl)c1`, for which the EC50 is above 200 µM and the IC50 was above 200 µM. On to `COc1cccc(CCn2c(N)c(C#N)c3ccc([N+](=O)[O-])cc3c2=O)c1`, for which the EC50 was above 200 µM and the IC50 came to 1.12 µM. Regarding `Cc1cc(C)c2c(=N)c3ccccc3n(CCCCCCn3c4ccccc4c(=N)c4c(C)cc(C)nc43)c2n1`, the EC50 was above 2 µM and the concentration for half-maximal inhibition (IC50) turned out to be 0.302 µM. In the case of `NC(=O)c1ccc(S(=O)(=NS(=O)(=O)c2ccccc2)c2ccc(C(N)=O)cc2)cc1`, the EC50 was above 295 µM and the IC50 was above 295 µM. Regarding `CCOC(=O)C(CCN1CCC2(CC1)C(=O)N(C)CN2c1ccccc1)C(=O)OCC`, the EC50 is above 200 µM and the IC50 is above 200 µM. For `Cc1csc(CCC(N)C(=O)O)n1` (stereo unspecified), the result was inactive. The same measure, in the same setting: the entry for `COc1ccc2c(c1)CCN1C3=C(CCC3)C(=O)C[C@@H]21` is “inactive”.

With `CC1=[N+]([O-])C(C)(C)N(N=O)C1(C)C`, the EC50 was above 200 µM and the IC50 was above 200 µM. In the case of `COc1cc(C(c2cc3c(cc2O)OCO3)N2CCCC2)cc(OC)c1OC` (stereo unspecified), the EC50 is above 200 µM and the concentration for half-maximal inhibition (IC50) is 7.76 µM. For `O=C1CC(c2ccsc2)NC(=O)N1CCCl` (stereo unspecified) the same measures were above 200 µM and above 200 µM.

For `O=C(COC(=O)c1cccc2c(=O)c3ccccc3[nH]c12)Nc1ccc(S(=O)(=O)Nc2ncccn2)cc1`, the result was inactive.

With `Oc1ccc(Cc2nccc3cc(O)c(O)cc23)cc1O`, the EC50 is above 200 µM and the IC50 was found to be 29.5 µM.

`COC(=O)C12C3C4C1C1C2C3C41I` (stereo unspecified): the EC50 is above 126 µM and the IC50 is above 126 µM. Turning to `CC(=O)OCC(=O)OC[C@H](OCc1ccccc1)[C@@H]1[C@H](OC(C)=O)C(=O)N1Cc1ccccc1`, the EC50 was above 200 µM and the half-maximal inhibitory concentration (IC50) amounted to 145 µM.

As to `CCOP(=O)(OCC)/C(C#N)=C/c1ccccc1Cl`, the result was inactive. In the case of `COC(=O)c1c(C)cccc1C1CN=NC12Cc1cc(C)c(C)cc1C2=O` (stereo unspecified), the EC50 is above 200 µM and the IC50 came out at 120 µM. `O=C(O)c1ccc2c[n+]3ccccc3cc2c1`: the EC50 is above 427 µM and the IC50 is above 427 µM. `CCCCP(CCCC)(CCCC)=C(C(=O)OC)C(C(=O)OC)=C1SC(C(=O)OC)=C(C(=O)OC)S1`: the EC50 was above 200 µM and the IC50 stood at 33.1 µM. For `O=C1ONN(c2ccccc2)/C1=C/N=Nc1ncnc2nc[nH]c12`, in that order: 162 µM and above 200 µM. For `CN1C(=O)CN(NC(=O)C2=C(O)c3ccc(Br)cc3S(=O)(=O)N2)C1=S`, in that order: above 200 µM and 51.3 µM. For `CO[C@H]1Nc2c(ccc(C)c2O)C(=O)N2C=C(/C=C/C(N)=O)C[C@@H]12`, in that order: above 759 µM and 0.427 µM. In the case of `COC(=O)Nc1nc2ccc(C(=O)c3ccccc3)cc2[nH]1`, the EC50 was above 2 µM and the concentration for half-maximal inhibition (IC50) turned out to be 0.0692 µM. For `COC(=O)c1ccc(CCC2=CC(=O)C=CC2=O)cc1` the same measures were above 200 µM and 7.59 µM.

For `C=C1[C@@H](OC(C)=O)C[C@@H]2C[C@]3(C)C(OC(C)=O)CC(C)(C)[C@@H]3C12O` (stereo partly specified), the EC50 is above 204 µM and the half-inhibitory concentration (IC50) is above 204 µM.

For the compound `COc1ccc(C2SC(N)=Nc3c2c(C)nn3C(=O)c2ccncc2)cc1OC` (stereo unspecified), the EC50 was 49 µM and the IC50 was found to be 170 µM. For `CC(=O)OCCNc1n[nH]c(=O)c2cnccc12` the same measures were above 1000 µM and above 1000 µM. `CC[C@H]1CN(C)[C@H]2Cc3c([nH]c4ccccc34)C(=O)C[C@H]1C2C(=O)OC` (stereo partly specified): the EC50 was above 129 µM and the IC50 was above 129 µM. For the compound `[CH3][Ge]([CH3])([CH2]CC#N)[S]c1ccccc1`, the EC50 is above 200 µM and the IC50 was 20 µM.

As to `C1CCN(C2OC3C(COC3N3CCCCC3)OC2OC2CCO[C@@H]2N2CCCCC2)CC1` (stereo partly specified), the EC50 was above 38.9 µM and the half-maximal inhibitory concentration (IC50) was 3.39 µM. Take `O=[N+]([O-])c1ccc(N2N=C(c3ccc4ccccc4c3O)CC2c2ccc(Cl)cc2)c([N+](=O)[O-])c1` (stereo unspecified): the EC50 is above 200 µM and the half-inhibitory concentration (IC50) amounted to 43.7 µM.

For the origin of these results see PubChem BioAssay AID179 (DTP/NCI, 2004).
